From paper PMC11149917, “Translational and Therapeutic Evaluation of RAS-GTP Inhibition by RMC-6236 in RAS-Driven Cancers” (Cancer Discovery, 2024)

Assays:
wild-type NRAS = wild-type NRAS (Homo sapiens, UniProt P01111+P62937); experiment: RAS-RAF TR-FRET; format: biochemical; conditions: 25 µmol/L CypA, read-out: EC50, disruption of RAF-RBD binding
wild-type HRAS = wild-type HRAS (Homo sapiens, UniProt P01112+P62937); experiment: RAS-RAF TR-FRET; format: biochemical; conditions: 25 µmol/L CypA, read-out: EC50, disruption of RAF-RBD binding
[1] = tested on: Ki67 in Capan-2 xenograft tumors; experiment: IHC whole-slide quantification; format: in vivo, mouse; conditions: control 49.7
Method: All tissues were fixed for up to 24 hours using 10% neutral buffered formalin and then moved to 70% ethanol for long-term storage. FFPE sections (4 µm) were stained on the Biocare intelliPATH automated staining platform using the manufacturer’s recommended settings.
Anti–Ki-67 rabbit monoclonal antibody (Biocare, cat no. CRM325, clone: SP6) was used at 1:50 with citrate-based pH 6.2 heat-induced epitope retrieval; an isotype control (rabbit IgG) was used under the same conditions.
All tissue sections were incubated with Biocare Peroxidase Blocker (Biocare, cat no. PX968) and Background Punisher (Biocare, cat no. BP974M) to block nonspecific background. MACH4 HRP-polymer Detection System (Biocare, cat no. MRH534) was used to detect rabbit primary antibodies.
DAB-stained slides were scanned and digitized with a Huron TissueScope LE120 whole-slide scanner at 200× magnification.
The EpCAM staining was used to identify epithelial cells. First, the area to be analyzed was delineated, excluding necrotic regions. The random forest tumor classifier from the HALO Image Analysis package was used to identify the tumor compartment. Three classes were created: glass, tumor (EpCAM-positive), and stroma. The tumor class mark was then copied onto the serial sections stained with various markers to perform the image analysis only on the tumor compartment.
Quantification of Ki-67 was performed with the HALO Image Analysis software from Indica Labs using the CytoNuclear module. The analysis was performed only on the tumor compartment copied from the EpCAM slide. The software was tuned to detect all the nuclei based on the hematoxylin stain (blue color) and to detect positive DAB staining (brown color). Total positivity was plotted and subjected to statistical analysis using GraphPad Prism (Dunnett multiple comparisons test).

Chain of wild-type NRAS (P01111 1-169): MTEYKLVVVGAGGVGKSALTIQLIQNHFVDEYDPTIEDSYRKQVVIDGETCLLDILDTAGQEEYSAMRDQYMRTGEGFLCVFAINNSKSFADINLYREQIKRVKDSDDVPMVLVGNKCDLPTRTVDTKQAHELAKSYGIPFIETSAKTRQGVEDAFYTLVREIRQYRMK
Chain of wild-type NRAS (P62937 whole entry): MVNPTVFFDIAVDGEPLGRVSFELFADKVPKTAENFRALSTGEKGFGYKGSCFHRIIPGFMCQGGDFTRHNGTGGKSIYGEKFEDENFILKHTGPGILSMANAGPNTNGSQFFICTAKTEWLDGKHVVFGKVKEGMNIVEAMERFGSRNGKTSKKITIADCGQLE
Chain of wild-type HRAS (P01112 1-169): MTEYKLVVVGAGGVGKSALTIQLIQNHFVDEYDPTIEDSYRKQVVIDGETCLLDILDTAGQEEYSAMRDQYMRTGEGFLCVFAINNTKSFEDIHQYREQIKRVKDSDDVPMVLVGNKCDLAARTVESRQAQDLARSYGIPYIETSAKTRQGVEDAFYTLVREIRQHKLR
Chain of wild-type HRAS (P62937 whole entry): as the sequence (P62937 whole entry) above

CCn1c(-c2cc(N3CCN(C)CC3)cnc2[C@H](C)OC)c2c3cc(ccc31)-c1csc(n1)C[C@H](NC(=O)[C@H]1C[C@@H]1C)C(=O)N1CCC[C@H](N1)C(=O)OCC(C)(C)C2 [RMC-6236]
EC50 (wild-type NRAS): 66 nM | EC50 (wild-type HRAS): 82 nM | Ki67 (% positive cells) ([1]; Capan-2 (25 mg/kg x 7d), 8h): 9.6% | Ki67 (% positive cells) ([1]; Capan-2 (25 mg/kg x 7d), 24h): 13.0% | Ki67 (% positive cells) ([1]; Capan-2 (25 mg/kg x 7d), 48hr): 19.2% | Ki67 (% positive cells) ([1]; Capan-2 (25 mg/kg), 8h): 44.9% | Ki67 (% positive cells) ([1]; Capan-2 (25 mg/kg), 24h): 47.4% | Ki67 (% positive cells) ([1]; Capan-2 (25 mg/kg), 48hr): 26.3%
